From US20260217706A1, “HETEROCYCLIC COMPOUNDS, PREPARATION METHOD THEREFOR AND USE THEREOF” (GUANGZHOU YUFAN NANTU BIOTECHNOLOGIES CO., LTD, priority 2023, published 2026)

Key:
CBL-B protein = CBL-B protein (Homo sapiens, UniProt Q13191); experiment: CBL-B binding experiment (Streptavidin-Tb cryptate / Ligand L1 displacement); settings: 8 nM CBL-B protein, 25° C., 60 minutes; Ki=Relative IC50/2
Method in brief: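 Buffer was 20 mM HEPES pH 7.5, 150 mM NaCl, 0.01% Triton X-100, 0.5 mM TCEP and BSA. Ten-point compound dilutions were incubated with 8 nM CBL-B for 60 min at 25° C., then read by luminescence after another 60 min at room temperature. IC50 came from a four-parameter fit, with Ki = relative IC50/2.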

[1] = test system: anti-CD3 activated human PBMCs; experiment: Effect of compounds on the level of IL-2 secretion by anti-CD3 activated human PBMCs (IL-2 ELISA); format: cell-based; settings: compound concentration at which fold change in IL-2 = 5; hPBMCs, CD3 antibody 2 μg/mL, 48 h, compound from 3 μM
Method in brief: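 Human PBMCs were preincubated 1 h, then exposed to compound (10 points, 3-fold from 3 μM final) with anti-CD3 at 2 μg/mL for 48 h at 37° C. Supernatant IL-2 was measured by ELISA as fold change over DMSO.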

CBL-B protein, sequence (Q13191 whole entry): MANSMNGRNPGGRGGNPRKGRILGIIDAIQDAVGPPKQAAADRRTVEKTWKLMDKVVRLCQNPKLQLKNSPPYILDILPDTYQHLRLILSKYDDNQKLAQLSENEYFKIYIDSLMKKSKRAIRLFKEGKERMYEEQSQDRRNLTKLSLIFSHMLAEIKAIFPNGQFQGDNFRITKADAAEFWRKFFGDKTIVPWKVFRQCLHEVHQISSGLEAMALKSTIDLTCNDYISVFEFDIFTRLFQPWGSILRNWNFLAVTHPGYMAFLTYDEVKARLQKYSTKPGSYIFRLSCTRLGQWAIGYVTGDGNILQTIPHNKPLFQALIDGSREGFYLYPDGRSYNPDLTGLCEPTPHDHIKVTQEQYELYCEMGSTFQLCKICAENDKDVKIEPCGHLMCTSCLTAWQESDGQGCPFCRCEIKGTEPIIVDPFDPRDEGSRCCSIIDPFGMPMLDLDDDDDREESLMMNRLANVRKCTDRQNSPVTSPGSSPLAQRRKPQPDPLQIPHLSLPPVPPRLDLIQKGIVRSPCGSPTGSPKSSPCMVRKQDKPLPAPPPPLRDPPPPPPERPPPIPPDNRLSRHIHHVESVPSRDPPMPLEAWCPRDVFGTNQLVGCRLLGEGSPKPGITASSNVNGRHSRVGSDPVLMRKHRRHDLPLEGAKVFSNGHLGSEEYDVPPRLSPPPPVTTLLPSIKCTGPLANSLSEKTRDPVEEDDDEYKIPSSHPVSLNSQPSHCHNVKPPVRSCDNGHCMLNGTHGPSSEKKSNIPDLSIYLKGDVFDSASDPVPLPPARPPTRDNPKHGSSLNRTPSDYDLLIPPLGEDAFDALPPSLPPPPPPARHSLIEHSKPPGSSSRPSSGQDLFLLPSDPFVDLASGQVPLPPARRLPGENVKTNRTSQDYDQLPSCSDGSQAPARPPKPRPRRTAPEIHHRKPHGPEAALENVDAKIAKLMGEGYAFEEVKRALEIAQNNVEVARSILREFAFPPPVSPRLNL

`CCNCc1cc2c(C(F)(F)F)cn(-c3cccc(C4(c5nncn5C)CCC4)c3)c(=O)c2[nH]1` [Compound T102, 2-((ethylamino)methyl)-6-(3-(1-(4-methyl-4H-1,2,4-triazol-3-yl)cyclobutyl)phenyl)-4-(trifluoromethyl)-1,6-dihydro-7H-pyrrolo[2,3-c]pyridin-7-one] was tested, and the Ki (CBL-B protein) was < 50 nM and the “IL-2 CFC=5/nM” value [1] was <500 nM.
With `C[C@H]1CCCN(Cc2cc3c(C(F)(F)F)cn(-c4cc(F)cc([C@]5(c6nncn6C)C[C@H](C)C5)c4)c(=O)c3[nH]2)C1` [Compound T103, 6-(3-fluoro-5-((1r,3S)-3-methyl-1-(4-methyl-4H-1,2,4-triazol-3-yl)cyclobutyl)phenyl)-2-(((S)-3-methylpiperidin-1-yl)methyl)-4-(trifluoromethyl)-1,6-dihydro-7H-pyrrolo[2,3-c]pyridin-7-one] the Ki (CBL-B protein) was < 50 nM and the “IL-2 CFC=5/nM” value [1] was <500 nM.
For `CC(C)NCc1cc2c(C(F)(F)F)cn(-c3cccc(C4(c5nncn5C)CCC4)c3)c(=O)c2[nH]1` [Compound T104, 2-((isopropylamino)methyl)-6-(3-(1-(4-methyl-4H-1,2,4-triazol-3-yl)cyclobutyl)phenyl)-4-(trifluoromethyl)-1,6-di hydro-7H-pyrrolo[2,3-c]pyridin-7-one], the Ki (CBL-B protein) was < 50 nM and the “IL-2 CFC=5/nM” value [1] was <500 nM.
With `C[C@H]1CCCN(Cc2cc3c(C(F)(F)F)cn(-c4cccc(C5(c6nncn6C)CC(F)(F)C5)c4)c(=O)c3[nH]2)C1` [Compound T109, 6-[3-[3,3-difluoro-1-(4-methyl-1,2,4-triazol-3-yl)cyclobutyl]phenyl]-2-[[(3S)-3-methyl-1-piperidyl]methyl]-4-(trifluoromethyl)-1H-pyrrolo[2,3-c]pyridin-7-one] the Ki (CBL-B protein) was < 50 nM and the “IL-2 CFC=5/nM” value [1] was <500 nM.
For `C[C@@H]1CN(Cc2cc3c(C(F)(F)F)cn(-c4cccc(C5(c6nncn6C)CCC5)c4)c(=O)c3[nH]2)CCC1(F)F` [Compound T111, (R)-2-((4,4-difluoro-3-methylpiperidin-1-yl)methyl)-6-(3-(1-(4-methyl-4H-1,2,4-triazol-3-yl)cyclobutyl)phenyl)-4-(trifluoromethyl)-1,6-dihydro-7H-pyrrolo[2,3-c]pyridin-7-one], the Ki (CBL-B protein) was < 50 nM and the “IL-2 CFC=5/nM” value [1] was <500 nM.
For `C[C@H]1CCCN(Cc2cc3c(C(F)(F)F)cn(-c4cccc(C5([C@@H](F)c6nncn6C)CC(F)(F)C5)c4)c(=O)c3[nH]2)C1` [Compound T119, 6-(3-(3,3-difluoro-1-((R)-fluoro(4-methyl-4H-1,2,4-triazol-3-yl)methyl)cyclobutyl)phenyl)-2-(((S)-3-methylpiperidin-1-yl)methyl)-4-(trifluoromethyl)-1,6-dihydro-7H-pyrrolo[2,3-c]pyridin-7-one], the Ki (CBL-B protein) was < 50 nM and the “IL-2 CFC=5/nM” value [1] was <500 nM.
With `C[C@H]1CCCN(Cc2cc3c(C(F)(F)F)cn(-c4cccc(C5([C@H](F)c6nncn6C)CC(F)(F)C5)c4)c(=O)c3[nH]2)C1` [Compound T120, 6-(3-(3,3-difluoro-1-((S)-fluoro(4-methyl-4H-1,2,4-triazol-3-yl)methyl)cyclobutyl)phenyl)-2-(((S)-3-methylpiperidin-1-yl)methyl)-4-(trifluoromethyl)-1,6-dihydro-7H-pyrrolo[2,3-c]pyridin-7-one] the Ki (CBL-B protein) was < 50 nM and the “IL-2 CFC=5/nM” value [1] was <500 nM.
For `C[C@H]1CCCN(Cc2cc3c(C(F)(F)F)cn(-c4cc(C#N)cc([C@]5(c6nncn6C)C[C@@H](C)C5)c4)c(=O)c3[nH]2)C1` [Compound T121, 3-((1s,3R)-3-methyl-1-(4-methyl-4H-1,2,4-triazol-3-yl)cyclobutyl)-5-(2-(((S)-3-methylpiperidin-1-yl)methyl)-7-oxo-4-(trifluoromethyl)-1,7-dihydro-6H-pyrrolo[2,3-c]pyridin-6-yl)benzonitrile], the Ki (CBL-B protein) was < 50 nM and the “IL-2 CFC=5/nM” value [1] was <500 nM.
